Values joined by “and” are separate entries in the source; they are usually repeats but may differ in a detail not shown here. Equal entries are not always repeated.

Format in all cases: physicochemical
A short description of one data set: Bulk density. The conditions noted are these: room temperature. Here is the method:
The mass of the drug was measured to a nearest 0.1 mg, the volume was determined to the nearest 0.1 mL and the density calculated.

Data set [1] can be described thus: Docetaxel dissolution study, USP Apparatus II (Paddle). The note with it: methanol/water 15/85, 37° C., pH 7, 75 rpm. As to the method: At 5, 15, 30, 60, 120 and 225 minutes, a 5 mL aliquot was removed, filtered through a 0.22 μm filter, and analyzed on a UV/VIS spectrophotometer at 232 nm. Absorbance values of the samples were compared to those of standard solutions prepared in dissolution media to determine the amount of material dissolved.

Data set [2] in a line: BET analysis (surface area). The conditions noted are these: listed as raw paclitaxel. As to the method: A known mass between 200 and 300 mg of the analyte was added to a 30 mL sample tube. The loaded tube was then mounted to a Porous Materials Inc. SORPTOMETER®, model BET-202A. The automated test was then carried out using the BETWIN® software package and the surface area of each sample was subsequently calculated.

In the case of `CC(=O)O[C@@]12CO[C@@H]1C[C@H](O)[C@@]1(C)C(=O)[C@H](O)C3=C(C)[C@@H](OC(=O)[C@H](O)[C@@H](NC(=O)OC(C)(C)C)c4ccccc4)C[C@@](O)([C@@H](OC(=O)c4ccccc4)[C@H]21)C3(C)C` [Docetaxel Raw Material, docetaxel], the “Bulk Density” value in the data set “Bulk density” came to 0.24 g/mL. Also, the Dissolution was 0.0% in data set [1] (0 minutes); 3.2% in data set [1] (5 minutes); 6.9% in data set [1] (15 minutes); 11% and 11.2% in data set [1] (30 minutes); 16.4% in data set [1] (60 minutes); 22.4% in data set [1] (120 minutes). Also, in data set [1] (225 minutes), the Dissolution was found to be 26.8%.
Take `CC(=O)O[C@H]1C(=O)[C@@]2(C)[C@H]([C@H](OC(=O)c3ccccc3)[C@]3(O)C[C@H](OC(=O)[C@H](O)[C@@H](NC(=O)c4ccccc4)c4ccccc4)C(C)=C1C3(C)C)[C@]1(OC(C)=O)CO[C@@H]1C[C@@H]2O` [Paclitaxel Raw Material, paclitaxel]: in the data set “Bulk density”, the “Bulk Density” value was found to be 0.26 g/mL. This compound returned a Surface area in data set [2] of 7.25 m^2/g.

The values are drawn from patent US10751319B2, “Collection device and methods for use” (CRITITECH, INC., priority 2015, dated 2020).
